Data published in patent US20240158446A1, “CYCLIC COMPOUND HAVING SELECTIVE INHIBITORY ACTION ON KRAS OVER HRAS AND NRAS” (CHUGAI SEIYAKU KABUSHIKI KAISHA, priority 2021, published 2024).
Like-named read-outs stand apart in the source and are kept apart here.

Experiments:
[1] = test system: human lung cancer strain NCI-H441;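 further: cell proliferation inhibition after four days measured by CellTiter-Glo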
[2] = target: GDP-bound NRAS wild-type protein (Homo sapiens, UniProt P01111); experiment: Binding to NRAS by surface plasmon resonance (SPR), Single Cycle Kinetics; details: for NRAS/KRAS (ratio of KD value for NRAS to KD value for KRAS): SPR, GDP-bound NRAS wild-type protein vs GDP-bound KRAS wild-type protein; for NRAS/KRAS (ratio of KD value with respect to GDP-bound NRAS wild-type protein to KD value with respect to KRAS): SPR KD ratio NRAS/KRAS, class symbols
[3] = target: GDP-bound KRAS wild-type protein (Homo sapiens, UniProt P01116); experiment: Binding to KRAS by surface plasmon resonance (SPR), Single Cycle Kinetics; details: GDP-bound KRAS wild-type protein, read-out: KRAS KD
[4] = target: GDP-bound HRAS wild-type protein (Homo sapiens, UniProt P01112); experiment: Binding to HRAS by surface plasmon resonance (SPR), Single Cycle Kinetics; details: for HRAS/KRAS (ratio of KD value for HRAS to KD value for KRAS): SPR, GDP-bound HRAS wild-type protein vs GDP-bound KRAS wild-type protein; for HRAS/KRAS (ratio of KD value with respect to GDP-bound HRAS wild-type protein to KD value with respect to KRAS): SPR KD ratio HRAS/KRAS, class symbols
[5] = SPR, Single Cycle Kinetics, 1:1 binding model
[6] = SPR Single Cycle Kinetics, 1:1 binding model

GDP-bound HRAS wild-type protein, sequence (P01112 whole entry): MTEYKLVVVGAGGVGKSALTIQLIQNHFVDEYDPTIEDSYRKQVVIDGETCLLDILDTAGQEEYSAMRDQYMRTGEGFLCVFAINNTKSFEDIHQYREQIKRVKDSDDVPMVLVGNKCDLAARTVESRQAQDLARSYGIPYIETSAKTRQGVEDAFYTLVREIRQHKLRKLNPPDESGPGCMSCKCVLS
GDP-bound NRAS wild-type protein, sequence (P01111 whole entry): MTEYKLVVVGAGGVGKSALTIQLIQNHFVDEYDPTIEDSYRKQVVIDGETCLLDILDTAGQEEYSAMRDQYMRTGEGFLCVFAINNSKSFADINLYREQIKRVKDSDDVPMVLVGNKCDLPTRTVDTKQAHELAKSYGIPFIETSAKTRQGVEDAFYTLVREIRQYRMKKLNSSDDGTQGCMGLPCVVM
GDP-bound KRAS wild-type protein, sequence (P01116 whole entry): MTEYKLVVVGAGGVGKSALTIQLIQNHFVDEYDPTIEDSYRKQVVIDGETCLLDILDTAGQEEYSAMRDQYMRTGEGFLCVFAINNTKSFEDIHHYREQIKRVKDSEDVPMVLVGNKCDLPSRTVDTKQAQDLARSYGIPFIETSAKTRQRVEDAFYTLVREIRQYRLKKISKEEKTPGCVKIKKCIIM

SMILES | IC50 [1] [nM] | Kd [3, 5] [nM] | Kd ([3]; SPR, Single Cycle Kinetics) [nM] | Kd [3, 6] [nM] | NRAS/KRAS (ratio of KD value for NRAS to KD value for KRAS) ([2]; KD ratio class) | HRAS/KRAS (ratio of KD value for HRAS to KD value for KRAS) ([4]; KD ratio class) | NRAS/KRAS (ratio of KD value for NRAS to KD value for KRAS) [2] | HRAS/KRAS (ratio of KD value for HRAS to KD value for KRAS) [4] | NRAS/KRAS (ratio of KD value with respect to GDP-bound NRAS wild-type protein to KD value with respect to KRAS) [2] | HRAS/KRAS (ratio of KD value with respect to GDP-bound HRAS wild-type protein to KD value with respect to KRAS) [4]
CCO[C@@H]1C[C@H]2C(=O)NC3(CCC3)C(=O)N(C)[C@@H](C(CC)CC)C(=O)N(C)[C@H](C(=O)N3CCCC3)CC(=O)N(C)[C@@H](COC)C(=O)N[C@@H]([C@@H](C)CC)C(=O)N(C)CC(=O)N(C)[C@H]3C/C=C\CCN(C3=O)[C@@H](CC3CCC(F)(F)CC3)C(=O)N(C)CC(=O)N[C@@H](CCc3cc(F)c(C(F)(F)F)c(F)c3)C(=O)N2C1 [PP1440] | 69.7 | 0.35 |  |  | AA (a compound having 20 or more is denoted as AA) | A (a compound having 10 or more and less than 20 is denoted as A) |  |  |  | 
CCO[C@@H]1C[C@H]2C(=O)NC3(CC(C)(C)C3)C(=O)N(C)[C@@H](C3CCCCC3)C(=O)N(C)[C@H](C(=O)N(C)C)CC(=O)N(C)[C@@H](COC)C(=O)N[C@@H]([C@@H](C)CC)C(=O)N(C3CC3)CC(=O)N(C)[C@H]3C/C=C\CCN(C3=O)[C@@H](Cc3ccc(C(F)(F)F)cc3)C(=O)N(C)CC(=O)N[C@@H](CCc3cc(F)c(C(F)(F)F)c(F)c3)C(=O)N2C1 [PP2657] | 29.2 |  |  | 0.44 |  |  |  |  | A (a compound having 10 or more and less than 20 is denoted as A) | A (a compound having 10 or more and less than 20 is denoted as A)
CCC[C@H]1C(=O)N[C@@H]([C@@H](C)CC)C(=O)N(C2CC2)CC(=O)N(C)[C@H]2C/C=C\CCN(C2=O)[C@@H](Cc2ccc(C)cc2)C(=O)N(C)CC(=O)N[C@@H](CCc2ccc(Cl)c(Cl)c2)C(=O)N2C[C@H](OCC)C[C@H]2C(=O)NC2(CC(C)(C)C2)C(=O)N(C)[C@@H](CC2CCC2)C(=O)N(C)[C@H](C(=O)N(C)C)CC(=O)N1C [PP2761] | 68.4 |  |  | 2.8 |  |  |  |  | A (a compound having 10 or more and less than 20 is denoted as A) | A (a compound having 10 or more and less than 20 is denoted as A)
CCC[C@H]1C(=O)N[C@@H]([C@@H](C)CC)C(=O)N(C2CC2)CC(=O)N(C)[C@H]2C/C=C\CCN(C2=O)[C@@H](Cc2ccc(C)cc2)C(=O)N(C)CC(=O)N[C@@H](CCc2ccc(Cl)c(Cl)c2)C(=O)N2C[C@H](OC(C)C)C[C@H]2C(=O)NC2(CC(C)(C)C2)C(=O)N(C)[C@@H](C2CCCC2)C(=O)N(C)[C@H](C(=O)N(C)C)CC(=O)N1C [PP2571] | 76.1 |  |  | 1 |  |  |  |  | A (a compound having 10 or more and less than 20 is denoted as A) | A (a compound having 10 or more and less than 20 is denoted as A)
CC[C@H](C)[C@@H]1NC(=O)[C@H](CC)N(C)C(=O)C[C@@H](C(=O)N(C)C)N(C)C(=O)[C@H](C2CCCC2)N(C)C(=O)C2(CCC2)NC(=O)[C@@H]2CSCCN2C(=O)[C@H](CCc2cc(F)c(C(F)(F)F)c(F)c2)NC(=O)CN(C)C(=O)[C@H](Cc2ccc(C(F)(F)F)cc2)N2CC/C=C\C[C@@H](C2=O)N(C)C(=O)CN(C)C1=O [PP1137, (2S,8S,15R,21S,24S,28S,31S,37S,39Z)-21-cyclopentyl-8-[2-[3,5-difluoro-4-(trifluoromethyl)phenyl]ethyl]-28-ethyl-N,N,4,20,23,27,33,36-octamethyl-31-[(1S)-1-methylpropyl]-3,6,9,16,19,22,26,29,32,35,43-undecaoxo-2-[[4-(trifluoromethyl)phenyl]methyl]spiro[13-thia-1,4,7,10,17,20,23,27,30,33,36-undecazatricyclo[35.5.1.0^10,1^5]tritetracont-39-ene-18,1′-cyclobutane]-24-carboxamide] | 142 |  | 0.11 |  |  |  | AA (a compound having 20 or more is denoted as AA) | A (a compound having 10 or more and less than 20 is denoted as A) |  | 
CC[C@H](C)[C@@H]1NC(=O)[C@H](CC)N(C)C(=O)C[C@@H](C(=O)N(C)C)N(C)C(=O)[C@H](C2CCCC2)N(C)C(=O)C2(CCC2)NC(=O)[C@@H]2C[C@H](F)CN2C(=O)[C@H](CCc2cc(F)c(C(F)(F)F)c(F)c2)NC(=O)CN(C)C(=O)[C@H](Cc2ccc(C(F)(F)F)cc2)N2CC/C=C\C[C@@H](C2=O)N(C)C(=O)CN(C)C1=O [PP1132, (2S,8S,12S,14S,20S,23S,27S,30S,36S,38Z)-20-cyclopentyl-8-[2-[3,5-difluoro-4-(trifluoromethyl)phenyl]ethyl]-27-ethyl-12-fluoro-N,N,4,19,22,26,32,35-octamethyl-30-[(1S)-1-methylpropyl]-3,6,9,15,18,21,25,28,31,34,42-undecaoxo-2-[[4-(trifluoromethyl)phenyl]methyl]spiro[1,4,7,10,16,19,22,26,29,32,35-undecazatricyclo[34.5.1.0^10,14]dotetracont-38-ene-17,1′-cyclobutane]-23-carboxamide] | 86.8 |  | 0.066 |  |  |  | A (a compound having 10 or more and less than 20 is denoted as A) | B (a compound having 3 or more and less than 10 is denoted as B) |  | 
CCOC[C@H]1C(=O)N[C@@H]([C@@H](C)CC)C(=O)N(C)CC(=O)N(C)[C@H]2C/C=C\CCN(C2=O)[C@@H](Cc2ccc(C(F)(F)F)cc2)C(=O)N(C)CC(=O)N[C@@H](CCc2cc(F)c(C(F)(F)F)c(F)c2)C(=O)N2C[C@H](OCC)C[C@H]2C(=O)NC2(CC(C)(C)C2)C(=O)N(C)[C@@H](CC2CCC2)C(=O)N(C)[C@H](C(=O)N(C)C)CC(=O)N1C [PP2763] | 71.9 |  |  | 0.86 |  |  |  |  | A (a compound having 10 or more and less than 20 is denoted as A) | A (a compound having 10 or more and less than 20 is denoted as A)

Compounds with a lower IC50 [1], results first:

IC50 [1] [nM] | Kd [3, 5] [nM] | Kd ([3]; SPR, Single Cycle Kinetics) [nM] | Kd [3, 6] [nM] | SMILES | NRAS/KRAS (ratio of KD value for NRAS to KD value for KRAS) ([2]; KD ratio class) | HRAS/KRAS (ratio of KD value for HRAS to KD value for KRAS) ([4]; KD ratio class) | NRAS/KRAS (ratio of KD value for NRAS to KD value for KRAS) [2] | HRAS/KRAS (ratio of KD value for HRAS to KD value for KRAS) [4] | NRAS/KRAS (ratio of KD value with respect to GDP-bound NRAS wild-type protein to KD value with respect to KRAS) [2] | HRAS/KRAS (ratio of KD value with respect to GDP-bound HRAS wild-type protein to KD value with respect to KRAS) [4]
8.6 |  | 0.11 |  | CCCOC[C@H]1C(=O)N[C@@H]([C@@H](C)CC)C(=O)N(C)CC(=O)N(C)[C@H]2C/C=C\CCN(C2=O)[C@@H](Cc2ccc(C)cc2)C(=O)N(C)CC(=O)N[C@@H](CCc2ccc(C(F)(F)F)c(OC)c2)C(=O)N2C[C@@H](C)C[C@H]2C(=O)NC2(CC(C)(C)C2)C(=O)N(C)[C@@H](C2CCCC2)C(=O)N(C)[C@H](C(=O)N(C)C)CC(=O)N1C [PP2447] |  |  | A (a compound having 10 or more and less than 20 is denoted as A) | B (a compound having 3 or more and less than 10 is denoted as B) |  | 
10.6 |  | 0.092 |  | CCCOC[C@H]1C(=O)N[C@@H]([C@@H](C)CC)C(=O)N(C)CC(=O)N(C)[C@H]2C/C=C\CCN(C2=O)[C@@H](Cc2ccc(C)cc2)C(=O)N(C)CC(=O)N[C@@H](CCc2ccc(C(F)(F)F)c(Cl)c2)C(=O)N2C[C@H](OCC)C[C@H]2C(=O)NC2(CC(C)(C)C2)C(=O)N(C)[C@@H](C2CCCC2)C(=O)N(C)[C@H](C(=O)N(C)C)CC(=O)N1C [PP2402] |  |  | A (a compound having 10 or more and less than 20 is denoted as A) | A (a compound having 10 or more and less than 20 is denoted as A) |  | 
19.2 |  | 0.2 |  | CCO[C@@H]1C[C@H]2C(=O)NC3(CCC3)C(=O)N(C)[C@@H](C(CC)CC)C(=O)N(C)[C@H](C(=O)N(C)C)CC(=O)N(C)[C@@H](CC)C(=O)N[C@@H]([C@@H](C)CC)C(=O)N(C)CC(=O)N(C)[C@H]3C/C=C\CCN(C3=O)[C@@H](Cc3ccc(C(F)(F)F)cc3)C(=O)N(C)CC(=O)N[C@@H](CCc3cc(F)c(C(F)(F)F)c(F)c3)C(=O)N2C1 [PP1200] |  |  | AA (a compound having 20 or more is denoted as AA) | A (a compound having 10 or more and less than 20 is denoted as A) |  | 
3.7 | 0.06 |  |  | CCO[C@@H]1C[C@H]2C(=O)NC3(CCC3)C(=O)N(C)[C@@H](C3CCCC3)C(=O)N(C)[C@H](C(=O)N(C)C)CC(=O)N(C)[C@@H](CC(C)C)C(=O)N[C@@H]([C@@H](C)CC)C(=O)N(C)CC(=O)N(C)[C@H]3C/C=C\CCN(C3=O)[C@@H](Cc3ccc(C(F)(F)F)cc3)C(=O)N(C)CC(=O)N[C@@H](CCc3ccc(C(F)(F)F)c(OC)c3)C(=O)N2C1 [PP1245, (2S,8S,12R,14S,20S,23S,27S,30S,36S,38Z)-20-cyclopentyl-12-ethoxy-27-isobutyl-8-[2-[3-methoxy-4-(trifluoromethyl)phenyl]ethyl]-N,N,4,19,22,26,32,35-octamethyl-30-[(1S)-1-methylpropyl]-3,6,9,15,18,21,25,28,31,34,42-undecaoxo-2-[[4-(trifluoromethyl)phenyl]methyl]spiro[1,4,7,10,16,19,22,26,29,32,35-undecazatricyclo[34.5.1.0^10,14]dotetracont-38-ene-17,1′-cyclobutane]-23-carboxamide] | A (a compound having 10 or more and less than 20 is denoted as A) | B (a compound having 3 or more and less than 10 is denoted as B) |  |  |  | 
